For the assay, the target named is Human DGAT2 (hDGAT2) (Homo sapiens (Human), UniProt Q96PD7). Put plainly: In vitro DGAT2 assay, IC50 determination with hDGAT2 membrane fraction. To be noted: geometric mean; background for complete inhibition of DGAT2 obtained with 50 μM (1R,2R)-2-({3′-Fluoro-4′-[(6-fluoro-1,3-benzothiazol-2-yl)amino]-1,1′-biphenyl-4-yl}carbonyl)cyclopentanecarboxylic acid; read-out: DGAT2 IC50. Format: biochemical. Put shortly: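 CHAPS-solubilized membrane fraction of FLAG-tagged hDGAT2 from baculovirus-infected SF9 cells (0.01 mg/mL) in 100 mM Hepes-NaOH pH 7.4, 20 mM MgCl2, 200 nM methyl arachidonyl fluorophosphonate; compounds pre-incubated 20 min with 0.04% BSA. Reaction 40 min at room temperature, stopped with H3PO4. [^14C]tridecanoylglycerol in organic phase counted; 11-point geometric mean IC50.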
Sequence of Human DGAT2 (hDGAT2) (Q96PD7 whole entry): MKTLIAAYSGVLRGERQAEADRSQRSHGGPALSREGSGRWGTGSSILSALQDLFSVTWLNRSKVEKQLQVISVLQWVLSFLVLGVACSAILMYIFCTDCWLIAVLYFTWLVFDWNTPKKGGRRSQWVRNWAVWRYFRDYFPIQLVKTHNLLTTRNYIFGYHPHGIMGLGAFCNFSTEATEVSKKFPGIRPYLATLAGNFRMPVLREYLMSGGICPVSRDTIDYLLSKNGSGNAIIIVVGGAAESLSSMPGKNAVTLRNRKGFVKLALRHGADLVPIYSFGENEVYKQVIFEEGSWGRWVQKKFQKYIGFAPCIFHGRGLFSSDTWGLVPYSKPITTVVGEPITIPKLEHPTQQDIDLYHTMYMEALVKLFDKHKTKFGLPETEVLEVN

On to `O=C([C@@H]1CCCN(c2ccc3nc(C4(n5cccn5)CCC4)[nH]c3n2)C1)N1CCCC1` [Example 80, (R)-(1-(2-(1-(1H-Pyrazol-1-yl)cyclobutyl)-3H-imidazo[4,5-b]pyridin-5-yl)piperidin-3-yl)(pyrrolidin-1-yl)methanone], for which the IC50 is 1400 nM. The value for `O=C([C@@H]1CCCN(c2ccc3nc(C4(n5cc(Cl)cn5)CC4)[nH]c3n2)C1)N1CC(F)(F)C1` [Example 200, (R)-(1-(2-(1-(4-Chloro-1H-pyrazol-1-yl)cyclopropyl)-3H-imidazo[4,5-b]pyridin-5-yl)piperidin-3-yl)(3,3-difluoroazetidin-1-yl)methanone] was 74.2 nM; that for `O=C([C@@H]1CCCN(c2ccc3nc(-c4cncc(C5CC5)n4)[nH]c3n2)C1)N1CCCC1` [Example 101, (R)-(1-(2-(6-Cyclopropylpyrazin-2-yl)-3H-imidazo[4,5-b]pyridin-5-yl)piperidin-3-yl)(pyrrolidin-1-yl)methanone] was 60.5 nM. The value for `O=C([C@@H]1CCCN(c2ccc3nc(-c4ccnc(C5CC5)n4)[nH]c3n2)C1)N1C[C@H]2C[C@@H]1CO2` [Example 174, (1R,4R)-2-Oxa-5-azabicyclo[2.2.1]heptan-5-yl((R)-1-(2-(2-cyclopropylpyrimidin-4-yl)-3H-imidazo[4,5-b]pyridin-5-yl)piperidin-3-yl)methanone] was 1170 nM. As to `O=C([C@@H]1CCCN(c2ccc3nc(-c4ccc5nccn5c4)[nH]c3n2)C1)N1CCCC1` [Example 19, (R)-(1-(2-(Imidazo[1,2-a]pyridin-6-yl)-3H-imidazo[4,5-b]pyridin-5-yl)piperidin-3-yl)(pyrrolidin-1-yl)methanone], the IC50 is 208 nM. On to `CN(C)C(=O)[C@@H]1CCCN(c2ccc3nc(-c4ccnc(C5CC5)n4)[nH]c3n2)C1` [Example 71, (R)-1-(2-(2-Cyclopropylpyrimidin-4-yl)-3H-imidazo[4,5-b]pyridin-5-yl)-N,N-dimethylpiperidine-3-carboxamide], for which the IC50 worked out at 1470 nM. As to `O=C(Nc1ccc(C(F)(F)F)nc1)c1nc2ccc(N3CCC[C@@H](C(=O)N4CCCC4)C3)nc2[nH]1` [Example 211, (R)-5-(3-(Pyrrolidine-1-carbonyl)piperidin-1-yl)-N-(6-(trifluoromethyl)pyridin-3-yl)-3H-imidazo[4,5-b]pyridine-2-carboxamide], the IC50 amounted to 845 nM. The value for `O=C([C@@H]1CCCN(c2ccc3nc(C4(n5nccn5)CC4)[nH]c3n2)C1)N1CCCC1` [Example 214, (R)-(1-(2-(1-(2H-1,2,3-Triazol-2-yl)cyclopropyl)-3H-imidazo[4,5-b]pyridin-5-yl)piperidin-3-yl)(pyrrolidin-1-yl)methanone] was 396 nM. The value for `CN(C)C(=O)[C@@H]1CCCN(c2ccc3nc(-c4cccc(C5CC5)n4)[nH]c3n2)C1` [Example 150, (R)-1-(2-(6-Cyclopropylpyridin-2-yl)-3H-imidazo[4,5-b]pyridin-5-yl)-N,N-dimethylpiperidine-3-carboxamide] was 47.3 nM; that for `CC(C)(O)c1csc(-c2nc3ccc(N4CCC[C@@H](C(=O)N5CCCC5)C4)nc3[nH]2)n1` [Example 140, (R)-(1-(2-(4-(2-Hydroxypropan-2-yl)thiazol-2-yl)-3H-imidazo[4,5-b]pyridin-5-yl)piperidin-3-yl)(pyrrolidin-1-yl)methanone] was 207 nM.

Consider `Cc1ccn(C2(c3nc4ccc(N5CCC[C@@H](C(=O)N6CCCC6)C5)nc4[nH]3)CC2)n1` [Example 89, (R)-(1-(2-(1-(3-Methyl-1H-pyrazol-1-yl)cyclopropyl)-3H-imidazo[4,5-b]pyridin-5-yl)piperidin-3-yl)(pyrrolidin-1-yl)methanone], for which the concentration for half-maximal inhibition (IC50) is 546 nM.

Take `c1cc(-c2nc3ccc(N4CCCC(c5ncc6n5CCC6)C4)nc3[nH]2)nc(C2CC2)n1` (stereo not drawn) [Example 133, 2-(2-Cyclopropylpyrimidin-4-yl)-5-(3-(6,7-dihydro-5H-pyrrolo[1,2-c]imidazol-3-yl)piperidin-1-yl)-3H-imidazo[4,5-b]pyridine]: the half-maximal inhibitory concentration (IC50) stood at 252 nM.

One may read the IC50 as the concentration at which inhibition is half-maximal.

Source of the values: patent US9296745B2, “Diacylglycerol acyltransferase 2 inhibitors” (Pfizer Inc., priority 2012, dated 2016).
